Literature values in patent US20250320459A1, “FUNCTIONALIZED MOLECULAR LAYERS AND SCAFFOLDS, AND METHODS OF PREPARATION AND USE THEREOF” (PURDUE RESEARCH FOUNDATION, priority 2022, published 2025).

Molecular target: WGA

KD, monovalent interactions between WGA and GlcNAc (monovalent): micromolar to millimolar range
KD, multivalent interactions between WGA and GlcNAc (multivalent): nanomolar range
Structure (SMILES): CC(=O)N[C@H]1C(O)O[C@H](CO)[C@@H](O)[C@@H]1O (stereo partly drawn) [GlcNAc, N-acetyl-D-glucosamine]
